According to patent publication US11505556B2, “Halogenated derivatives of morphinans and uses thereof” (Xalud Therapeutics, Inc., priority 2017, dated 2022):
Read-outs that look alike come from different tables or passages of the source.

Experiments:
[1] = in vitro; conditions: rat, cultured hepatocytes
[2] = system: Human hepatocytes; assay: Hepatocyte elimination of parent compound; conditions: cultured hepatocytes
[3] = in vitro; conditions: dog, cultured hepatocytes
[4] = molecular target: hERG (Homo sapiens, UniProt Q12809); assay: hERG inhibition
[5] = molecular target: iNOS (Homo sapiens, UniProt P35228); assay: iNOS enzyme inhibition; format: biochemical
[6] = system: TLR4 (LPS-stimulated NO production, BV-2 mouse microglia cell line); assay: NO assay: inhibition of LPS-induced NO production in BV-2 microglia (iNOS cellular); format: cell-based; conditions: Mus musculus
Excerpt: NO assay: Microglia are the resident cells of the innate immune system in the central nervous system, and TLR4 is primarily expressed by microglia rather than astrocytes or neurons in the CNS. Given this expression profile, the BV-2 mouse microglia cell line was used as the model system of microglia, as these cells recapitulate many of the responses of primary microglia with high fidelity. TLR4 activation induces the downstream production of the inflammatory factor NO, which contributes to the development of neuropathic pain and drug addiction. BV-2 murine microglia were grown in supplemented DMEM (including 10% FBS, 50 unit mL^−1 penicillin, 50 μg·mL^−1 streptomycin). BV-2 cells were detached from the flask by trypsin digestion when ˜80% confluence was reached. Cells were seeded at a density of 4×10^4 cells per well in 96-well plates. After overnight incubation, media was aspirated and changed to DMEM media without FBS. Cells were then treated with LPS (200 ng/ml) and different concentrations of the testing compounds. After 24 h treatment, 100 μL of supernatant media was removed after cells were treated for 24 h and added to flat black 96-well microfluor plates (Thermo Scientific, MA, USA). Subsequently, 10 μL of 2, 3-diaminonaphthalene (0.05 mg·mL^−1 in 0.62 M HCl) was added to each well and incubated for 15 min. The reaction was quenched by addition of 5 μL of 3 M NaOH and the plate was read on a Beckman Coulter DTX880 reader (Fullerton, Calif., USA) with excitation at 360 nm and emission at 430 nm.
N chain NTX: This experimentation involved an in vitro assay where mouse BV2 cells were treated with LPS, which results in the release of nitric oxide (NO). Blockade of TLR4 activity results in reduced NO production. Therefore, IC50 values were determined for test compounds that antagonize TLR4 activity. A series of test compounds were prepared, with different N-alkyl chains replacing the cyclopropyl methyl found in naltrexone. Cell viability was also measured by a standard assay, e.g., measurement of the release of cytoplasm-resident enzymes in the tissue culture supernatant or media to detect cell loss/lysis/rupture. A dose-inhibition curve was generated by testing the TLR4 antagonist compound for the ability to block LPS-stimulated iNOs induction. In FIG. 7, the inhibition levels across a range of doses are graphed, along with a regression curve. The IC50 value—50% inhibition level—is also provided, graphed against the length of the alkyl chain. Note that with longer N-alkyl chain the IC50 was reduced, although cell viability became problematic.
FIGS. 8B to 8D show the results of the inhibition of NO production from LPS-stimulated BV2 cells using the assay described above.

[7] = in vitro; conditions: human, cultured hepatocytes
[8] = in vitro; conditions: mouse, hepatocytes
[9] = Hepatocyte elimination of parent compound, spread across species; format: in vitro ADME; conditions: mouse, rat, dog, monkey, human, hepatocytes; lowest to highest species value; read-out: range of hepatocyte elimination half-life values across species
Description: Hepatocyte Elimination: (+)-NTX, AK-17 and XT-203 were incubated with cultured hepatocytes from the species listed in FIG. 9 and Table 4, and samples of the culture supernatant were collected over time. Samples were concentrated by nitrogen drying followed by reconstitution with 40% methanol for LC/MS analysis The data points were analyzed using the WinNonLin pharmacokinetics software package, and a half-life was determined that describes the rate of parent elimination. […].
(§1) In addition to the animal studies presented above in Examples 1-9, the results of in vitro testing of several of the compounds (i.e., XT-203, XT-204, and XT-206 through XT-217) are shown in Table 5 and Table 6. […]. Nine additional compounds had two or fewer off-target hits in the screening. […] These compounds spanned all of the tested N-modification classes. […]. Thus, the medicinal chemistry approach taken in this series of fluorinated compounds can yield low off-target activity and longer metabolic lifetime while preserving TLR4 antagonism. It is appreciated that further development of compounds in this class, using techniques known to those skilled in the art, may yield additional compounds with desirable pharmacologic and toxicologic characteristics.

[10] = system: off-target screening panel; assay: Off-target inhibition screening (whole panel); conditions: 10 μM test concentration; hit = inhibition at or above the 50% level
Excerpt: as §1

[11] = in vitro; conditions: monkey, cultured hepatocytes
[12] = system: CCI neuropathic pain (mechanical allodynia); assay: Rat CCI model, oral and subcutaneous phases (Study R042); format: in vivo; conditions: gabapentin 200 mg/kg
Description: Rat chronic constriction injury model-Oral and subcutaneous (+)-NTX and XT-203: An efficacy study was conducted in the rat chronic constriction injury (CCI) model (Study R042). The study design comprised two phases. A five-day period of oral (PO) dosing and behavioral testing was followed by a five-day period of subcutaneous (SC) dosing, with a two-day washout period between these periods. Dosing on each day was performed three times a day (TID). Behavioral testing for mechanical allodynia was performed on the first and fifth days of dosing, at three times on those days: before the first dose of the day, 30 minutes after the first dose of the day, and 30 minutes after the second dose of the day. Thus, day 5 testing is designated as pre5.1 (before the first dose of the day), 5.1 (fifth day, after first dose) or 5.2 (fifth day, after second dose). On day 5 of the subcutaneous dosing phase, a second testing period was introduced 60 minutes after the second dose. (+)-NTX (6, 18, and 60 mg/kg) and XT-203. Mechanical allodynia was tested manually, using the Chaplan up-down testing method. The results are shown in FIGS. 10A and 10B, with the oral (PO) phase presented as the first pair of graphs. After the two-day washout, the subcutaneous (SC) phase was carried out with the results shown in the graphs at FIGS. 10C and 10D.
The CCI model was well established in this study, with allodynic response thresholds between 2 and 3 grams (presurgical baseline thresholds at 15 g, not shown). […] This is especially remarkable given the extremely rapid metabolism and pharmacokinetics of (+)-NTX (see FIG. 9). Here, the dampening of efficacy due to lack of significant amounts of parent compound is particularly evident. Thus, the appropriate dose-ranging conditions in animal models should reflect (+)-NTX serum levels during efficacy testing, to match pharmacokinetics with pharmacodynamics. […] Efficacy is only observed after the first dose on day 5. Thus, changes designed to improve compound stability do provide improved efficacy.

[13] = system: surgical pain (paw incision), paw withdrawal threshold; assay: Mouse paw incision model, morphine potentiation
Description: Manual testing with von Frey hairs was performed at the times indicated in the graphs. The animals were placed in individual Perspex boxes on a raised metal mesh for at least 40 min before the test. A series of graduated von Frey hairs (0.07, 0.16, 0.4, 0.6, and 1.0 g) were applied to the plantar surface of the left paw, in sequence. Each von Frey hair was applied 10 times on a one-sec-on-one-sec-off protocol, with each hair slightly bent. A paw withdrawal upon this hind-paw stimulation for a given von Frey hair registering 5 responses out of 10 trials was recorded the paw withdrawal threshold (PWT). A baseline PWT was determined each day for 3 days before surgery. […] In addition, the PWT was determined before dosing and 1, 2, and 4 hours after dosing.
In both cases, morphine was dosed at 1 mg/kg IP.

[14] = system: bone fracture pain, paw withdrawal threshold; assay: Mouse bone fracture model, intraperitoneal; format: in vivo
Excerpt: Each group had n=10 mice.

[15] = molecular target: Adenosine A2A (Homo sapiens, UniProt P29274); assay: Off-target screening; format: binding
Excerpt: as §1

[16] = molecular target: Cannabinoid CB1 (Homo sapiens, UniProt P21554); assay: Off-target screening; format: binding
Excerpt: as §1

[17] = Microglia, Table 6, unit inferred, footnote: Indicator of TL4 antagonism
[18] = LPS (200 ng/ml), 24 h, BV-2 cells, Table 3

hERG, sequence (Q12809 whole entry): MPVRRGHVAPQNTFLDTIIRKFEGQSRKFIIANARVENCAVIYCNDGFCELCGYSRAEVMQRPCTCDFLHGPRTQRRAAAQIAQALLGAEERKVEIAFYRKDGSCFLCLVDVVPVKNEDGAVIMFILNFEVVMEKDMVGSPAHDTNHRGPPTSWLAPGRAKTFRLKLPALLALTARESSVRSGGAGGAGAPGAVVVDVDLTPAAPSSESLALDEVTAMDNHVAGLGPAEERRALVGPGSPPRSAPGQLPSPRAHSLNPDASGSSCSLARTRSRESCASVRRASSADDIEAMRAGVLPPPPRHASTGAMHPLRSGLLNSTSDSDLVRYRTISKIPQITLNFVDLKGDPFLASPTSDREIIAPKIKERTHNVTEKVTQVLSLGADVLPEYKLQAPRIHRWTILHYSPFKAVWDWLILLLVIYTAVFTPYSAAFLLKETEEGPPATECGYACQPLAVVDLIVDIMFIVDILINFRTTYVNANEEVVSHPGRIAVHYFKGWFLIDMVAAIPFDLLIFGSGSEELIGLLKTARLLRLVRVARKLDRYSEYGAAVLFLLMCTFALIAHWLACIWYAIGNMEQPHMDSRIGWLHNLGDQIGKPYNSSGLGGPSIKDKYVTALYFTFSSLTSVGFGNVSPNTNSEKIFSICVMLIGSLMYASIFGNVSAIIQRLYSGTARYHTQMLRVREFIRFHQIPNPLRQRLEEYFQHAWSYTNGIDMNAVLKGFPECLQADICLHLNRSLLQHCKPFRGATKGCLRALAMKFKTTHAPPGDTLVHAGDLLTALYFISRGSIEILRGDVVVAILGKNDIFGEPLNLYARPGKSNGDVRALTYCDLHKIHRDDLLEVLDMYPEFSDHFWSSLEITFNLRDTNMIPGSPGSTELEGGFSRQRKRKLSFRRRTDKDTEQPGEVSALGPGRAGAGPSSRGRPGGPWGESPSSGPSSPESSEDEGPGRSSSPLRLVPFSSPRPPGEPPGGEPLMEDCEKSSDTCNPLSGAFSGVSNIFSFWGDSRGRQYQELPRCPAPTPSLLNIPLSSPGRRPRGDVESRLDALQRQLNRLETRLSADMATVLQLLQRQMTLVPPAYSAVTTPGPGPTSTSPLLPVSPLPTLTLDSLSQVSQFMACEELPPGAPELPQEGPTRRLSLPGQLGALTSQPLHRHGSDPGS
iNOS, sequence (P35228 whole entry): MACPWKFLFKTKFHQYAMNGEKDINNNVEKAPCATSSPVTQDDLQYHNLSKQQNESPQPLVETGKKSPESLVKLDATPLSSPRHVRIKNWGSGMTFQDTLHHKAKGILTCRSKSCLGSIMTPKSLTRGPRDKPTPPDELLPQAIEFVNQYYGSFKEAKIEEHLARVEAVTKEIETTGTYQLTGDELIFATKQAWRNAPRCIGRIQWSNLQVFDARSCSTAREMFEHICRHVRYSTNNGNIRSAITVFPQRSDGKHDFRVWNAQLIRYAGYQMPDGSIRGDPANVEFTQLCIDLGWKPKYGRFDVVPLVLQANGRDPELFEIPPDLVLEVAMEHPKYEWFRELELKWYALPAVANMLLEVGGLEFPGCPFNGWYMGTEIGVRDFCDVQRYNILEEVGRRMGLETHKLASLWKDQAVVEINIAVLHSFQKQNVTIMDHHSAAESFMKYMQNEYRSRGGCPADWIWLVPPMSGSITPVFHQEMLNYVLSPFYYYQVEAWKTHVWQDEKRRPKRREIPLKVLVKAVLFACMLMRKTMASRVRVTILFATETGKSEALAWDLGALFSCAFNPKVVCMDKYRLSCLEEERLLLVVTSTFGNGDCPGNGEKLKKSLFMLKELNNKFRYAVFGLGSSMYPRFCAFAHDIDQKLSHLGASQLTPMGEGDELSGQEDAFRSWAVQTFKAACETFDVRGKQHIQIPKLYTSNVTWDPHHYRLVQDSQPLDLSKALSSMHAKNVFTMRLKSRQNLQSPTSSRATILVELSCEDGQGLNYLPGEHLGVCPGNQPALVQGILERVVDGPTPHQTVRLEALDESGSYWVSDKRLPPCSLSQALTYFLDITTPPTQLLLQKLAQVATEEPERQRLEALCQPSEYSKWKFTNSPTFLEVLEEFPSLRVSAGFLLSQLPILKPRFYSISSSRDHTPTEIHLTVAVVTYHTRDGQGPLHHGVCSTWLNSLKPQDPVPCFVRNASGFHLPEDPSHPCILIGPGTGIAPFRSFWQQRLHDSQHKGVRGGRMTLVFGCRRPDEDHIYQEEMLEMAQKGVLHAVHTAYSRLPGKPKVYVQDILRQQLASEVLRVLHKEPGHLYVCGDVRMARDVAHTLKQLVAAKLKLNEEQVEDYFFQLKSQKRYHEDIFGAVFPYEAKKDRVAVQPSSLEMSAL
Cannabinoid CB1, sequence (P21554 whole entry): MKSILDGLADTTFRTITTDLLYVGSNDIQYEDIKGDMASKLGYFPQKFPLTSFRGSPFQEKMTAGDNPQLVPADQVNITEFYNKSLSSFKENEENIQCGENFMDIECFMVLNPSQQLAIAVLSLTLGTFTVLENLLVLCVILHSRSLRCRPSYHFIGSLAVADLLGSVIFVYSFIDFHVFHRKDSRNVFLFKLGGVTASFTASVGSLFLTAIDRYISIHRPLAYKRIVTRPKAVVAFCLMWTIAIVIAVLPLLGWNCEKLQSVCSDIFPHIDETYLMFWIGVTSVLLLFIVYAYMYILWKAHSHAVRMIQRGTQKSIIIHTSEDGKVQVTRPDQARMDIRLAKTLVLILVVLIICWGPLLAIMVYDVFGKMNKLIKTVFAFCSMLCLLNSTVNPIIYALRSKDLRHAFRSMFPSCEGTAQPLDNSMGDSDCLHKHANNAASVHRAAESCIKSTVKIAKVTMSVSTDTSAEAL
Adenosine A2A, sequence (P29274 whole entry): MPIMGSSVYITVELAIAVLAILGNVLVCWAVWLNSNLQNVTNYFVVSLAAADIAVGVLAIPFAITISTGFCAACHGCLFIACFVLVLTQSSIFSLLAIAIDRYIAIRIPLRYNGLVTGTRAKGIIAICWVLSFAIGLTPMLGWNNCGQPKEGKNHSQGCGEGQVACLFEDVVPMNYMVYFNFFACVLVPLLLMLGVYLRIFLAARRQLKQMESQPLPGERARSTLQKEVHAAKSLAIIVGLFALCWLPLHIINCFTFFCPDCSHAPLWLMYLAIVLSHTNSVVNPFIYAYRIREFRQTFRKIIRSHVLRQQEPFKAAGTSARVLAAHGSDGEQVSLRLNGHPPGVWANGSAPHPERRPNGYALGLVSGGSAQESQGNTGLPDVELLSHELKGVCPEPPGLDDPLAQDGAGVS

| SMILES | half-life [1] [min] | half-life [3] [min] | IC50 [4] [µM] | IC50 [6, 17] [µM] | IC50 [6, 18] [µM] | half-life [7] [min] | half-life [8] [min] | half-life [9] [min] | off-target hits in the screening [10] | half-life [11] [min] | other results |
| --- | --- | --- | --- | --- | --- | --- | --- | --- | --- | --- | --- |
| COc1ccc2c3c1O[C@@H]1C(F)CCC4[C@H](C2)N(C(=O)C2CC2)CC[C@]341 (some centres unmarked) [XT-206] | 14.4 | 80.8 | > 10 | > 10 | > 10 | 120 | 18.3 | 14.4 to 120 | no off-target hits and none | 15.5 | parent duration in human hepatocytes relative to XT-203 [2]: longer parent duration than XT-203; IC50 [5]: > 10 µM; IC50 ([5]; read-out: iNOS enzyme, Table 6, unit inferred): > 10 µM |
| NCC1(CC(=O)O)CCCCC1 [gabapentin, reference compound] | – | – | – | – | – | – | – | – | – | – | reversal of mechanical allodynia, positive control [12]: reversals of allodynia |
| CN1CC[C@]23c4c5ccc(O)c4O[C@H]2[C@@H](O)C=C[C@H]3[C@H]1C5 [Morphine, morphine] | – | – | – | – | – | – | – | – | – | – | PWT, 2 hours after dosing ([13]; morphine 1 mg/kg IP alone): 0.11 ± 0.033 g; PWT, 4 hours after dosing ([13]; morphine 1 mg/kg IP alone): 0.10 ± 0.014 g; PWT, 1 hour after dosing ([13]; morphine 1 mg/kg IP alone, baseline 0.11±0.015 g): 0.20 ± 0.046 g; adverse effects during observation ([13]; morphine dose groups): No significant adverse effects; effect on PWT in mouse fracture pain model ([14]; IP, morphine 1, 2, 3, 5 mg/kg, XT-203 6, 10, 18, 30 mg/kg, (+)-NTX 6, 18, 30, 60 mg/kg, dose-dependent): increased the PWT; behaviour observed at 5 mg/kg ([14]; mouse fracture model, 5 mg/kg IP, 1 hour after dosing, gone from two hours onward): some mice showing walking anti-clockwise |
| COc1ccc2c3c1O[C@@H]1C(F)CCC4[C@H](C2)N(S(=O)(=O)Cc2ccccc2)CC[C@]341 (some centres unmarked) [XT-217] | 10.2 | 9.7 | > 10 | > 10 | > 10 | 14.1 | 12.6 | 9.2 to 14.1 | two off-target hits | 9.2 | inhibition at 10 µM [15]: 61%; inhibition at 10 µM [16]: 56% |
| COc1ccc2c3c1O[C@@H]1C(F)CCC4[C@H](C2)N(C(=O)Cc2ccccc2)CC[C@]341 (some centres unmarked) [XT-211] | 11.9 | 19.1 | > 10 | > 10 | > 10 | 32.5 | 19 | – | no off-target hits and none | 12.9 | – |
